From PubChem BioAssay (NCI)
“And” between values parts separate entries of the source, which are not always exact repeats. Equal values may be shown once.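 Values below derive from 48-hour exposures of cells grown in 96-well plates, with endpoints linearly interpolated between the two concentrations bracketing the appropriate inhibition level. GI50 = concentration required for 50% inhibition of growth. TGI: total growth inhibition.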

How the values were obtained:
Experiment in all cases: growth of human tumour cells (NCI), 48 h
OVCAR-4 ovarian = system: OVCAR-4 ovarian
MDA-MB-435 = system: MDA-MB-435
786-0 renal = system: 786-0 renal
BT-549 breast = system: BT-549 breast
ACHN renal = system: ACHN renal
TK-10 renal = system: TK-10 renal
A549 NSCLC = system: A549 NSCLC
HCC-2998 colon = system: HCC-2998 colon

## FC(F)(F)c1[nH]ncc1-c1nc2c(N3CCCCC3)cc3[nH]ncc3c2c2c1CCCC2
OVCAR-4 ovarian
  GI50: 1.42 µM
  TGI: > 15.3 µM
MDA-MB-435
  GI50: 0.741 µM
  TGI: 2.19 µM
786-0 renal
  GI50: 0.905 µM
  TGI: 2.93 µM
BT-549 breast
  GI50: 0.643 µM
  TGI: 1.37 µM
ACHN renal
  GI50: 0.498 µM
  TGI: > 28 µM
TK-10 renal
  GI50: 0.615 µM
  TGI: > 50 µM
A549 NSCLC
  GI50: 0.816 µM
  TGI: > 12.5 µM
HCC-2998 colon
  GI50: 0.929 µM
  TGI: 3.06 µM

## Cc1ccc(Nc2[nH]c(C(=O)c3ccc(Cl)cc3)c(N)c2C(=S)Nc2ccccc2)nc1
OVCAR-4 ovarian
  GI50: 63.6 µM
  TGI: > 100 µM
MDA-MB-435
  GI50: 23 µM
  TGI: 96.3 µM
786-0 renal
  GI50: 35.7 µM
  TGI: > 100 µM
BT-549 breast
  GI50: 30.7 µM
  TGI: > 100 µM
ACHN renal
  GI50: 31.9 µM
  TGI: > 100 µM
TK-10 renal
  GI50: 28.1 µM
  TGI: > 100 µM
A549 NSCLC
  GI50: 37.7 µM
  TGI: > 100 µM
HCC-2998 colon
  GI50: 15.9 µM
  TGI: 33.2 µM

## COc1nc2c(cc1S(=O)(=O)c1ccccc1)CCc1c-2cnn1Cc1ccccc1
OVCAR-4 ovarian
  GI50: 5.22 µM
  TGI: > 100 µM
MDA-MB-435
  GI50: > 100 µM
  TGI: > 100 µM
786-0 renal
  GI50: 13.6 µM
  TGI: > 100 µM
BT-549 breast
  GI50: 8.07 µM
  TGI: > 100 µM
ACHN renal
  GI50: 42.6 µM
  TGI: > 100 µM
TK-10 renal
  GI50: > 100 µM
  TGI: > 100 µM
A549 NSCLC
  GI50: > 100 µM
  TGI: > 100 µM
HCC-2998 colon
  GI50: 25.3 µM
  TGI: > 100 µM

## COc1cc(/C=C2\CCCC3C2=Nc2ccccc2NC3c2cc(OC)c(OC)c(OC)c2)cc(OC)c1OC (configuration not stated)
OVCAR-4 ovarian
  GI50: 2.14 µM
  TGI: > 100 µM
MDA-MB-435
  GI50: 0.425 µM
  TGI: 4.4 µM
786-0 renal
  GI50: 2.55 µM
  TGI: 8 µM
BT-549 breast
  GI50: 1.58 µM
  TGI: 5.5 µM
ACHN renal
  GI50: 1.66 µM
  TGI: 3.57 µM
TK-10 renal
  GI50: 3.49 µM
  TGI: 17.7 µM
A549 NSCLC
  GI50: 1.9 µM
  TGI: 8.06 µM
HCC-2998 colon
  GI50: 2.3 µM
  TGI: 4.81 µM

## CC(C)(C)OC(=O)N1CC(Cn2cc(C(F)(F)F)c3c(Cl)ncnc32)C1
OVCAR-4 ovarian
  GI50: 10.2 µM
  TGI: 23.2 µM
MDA-MB-435
  GI50: 1.72 µM
  TGI: 3.14 µM
786-0 renal
  GI50: 16.8 µM
  TGI: 36.7 µM
BT-549 breast
  GI50: 1.62 µM
  TGI: 3.06 µM
ACHN renal
  GI50: 15 µM
  TGI: 31.9 µM
TK-10 renal
  GI50: 24.6 µM
  TGI: 62.5 µM
A549 NSCLC
  GI50: 14 µM
  TGI: 28.2 µM
HCC-2998 colon
  GI50: 1.79 µM
  TGI: 3.34 µM

## Clc1nc(Cl)c2ncn(C/C=C/Cn3cnc4c(Cl)nc(Cl)nc43)c2n1
OVCAR-4 ovarian
  GI50: 20 µM
  TGI: 34.8 µM
MDA-MB-435
  GI50: 19.8 µM
  TGI: 39.4 µM
786-0 renal
  GI50: 23.4 µM
  TGI: 48.5 µM
BT-549 breast
  GI50: 16.7 µM
  TGI: 31.3 µM
ACHN renal
  GI50: 18.2 µM
  TGI: 32.2 µM
TK-10 renal
  GI50: 21.7 µM
  TGI: 39 µM
A549 NSCLC
  GI50: 13.2 µM
  TGI: 32 µM
HCC-2998 colon
  GI50: 16 µM
  TGI: 31.4 µM

## COc1ccc(-c2ccc3ncc4c(c3c2)n(-c2ccc(N3CCNCC3)c(C(F)(F)F)c2)c(=O)n4C)cn1
OVCAR-4 ovarian
  GI50: < 0.01 µM and 0.0029 µM
  TGI: 0.0207 µM and 0.0252 µM
MDA-MB-435
  GI50: < 0.01 µM and 0.00272 µM
  TGI: 0.0732 µM and 0.106 µM
786-0 renal
  GI50: < 0.01 µM and 0.00325 µM
  TGI: 0.111 µM and 0.107 µM
BT-549 breast
  GI50: < 0.01 µM and 0.00552 µM
  TGI: 0.0556 µM and 0.0647 µM
ACHN renal
  GI50: < 0.01 µM and 0.00959 µM
  TGI: 1.1 µM and 0.782 µM
TK-10 renal
  GI50: < 0.01 µM and 0.00865 µM
  TGI: 0.0379 µM and 0.109 µM
A549 NSCLC
  GI50: < 0.01 µM and 0.00607 µM
  TGI: 0.153 µM and 0.329 µM
HCC-2998 colon
  GI50: < 0.01 µM and 0.00675 µM
  TGI: 1.34 µM and 0.269 µM
